Results on two compounds are retold here after US7323601B2, “Enanitomers of unsaturated alkyllysophosphonocholines and use as anti-neoplastics” (Research Foundation of the City University of New York, priority 2001, dated 2008).

Experiment [1] has as its system T47D breast epithelial cancer cell line. Description: Proliferation of log-phase cells, T47D. Particulars: 48 h incubation, 10% FBS-supplemented medium, read-out: IC50 values (drug concentration required to reduce cell growth by 50%). The experiment is classed as cell-based. The method, then:
(§1) All the cell lines were grown from frozen stocks originally obtained from ATCC. T47D, MDA-MB-468 and MCF-7 (breast cancer cell lines) were grown in DMEM. SK-N-MC and SK-N-SH (neuroblastoma) were grown in minimum essential medium with non-essential amino acids and Earle's balanced salt solution. All media were supplemented with 10% FBS and antibiotics (Ashagbley, A., Samadder, P., Bittman, R., Erukulla, R. K., Byun, H-S., Arthur, G. (I 996) Anticancer Res. 16, 1813-1818).
(§2) The effect of the ET-16-phosphono-TDBs on cell proliferation was conducted as previously described (Ashagbley, A., Samadder, P., Bittman, R., Erukulla, R. K., Byun, H-S., Arthur, G. (1996) Anticancer Res. 16, 1813-1818; and Lu, X., and Arthur, G. (1992) Cancer Res. 52, 2806-2812). The cells were seeded in 24-well dishes at a density of 20,000 cells/well with 10% FBS-supplemented medium. The cell numbers were monitored daily. […] The cell numbers at the time of addition of the drugs were determined with a Coulter ZM counter. After 48 h incubation, the cell numbers were determined and the increase in cell number over the numbers at the time of the addition of the drugs was determined and expressed as a function of the control cells which received no drug. The viability of the cells was assessed by the ability to exclude trypan blue dye.

Experiment [2] concerns MDA-MB-468 breast epithelial cancer cell line. Description: Proliferation of log-phase cells, MDA-MB-468. The format is cell-based. Particulars: 48 h incubation, 10% FBS-supplemented medium, read-out: IC50 values (drug concentration required to reduce cell growth by 50%). The method, then: as §1, §2
Experiment [3] concerns MCF-7 breast epithelial cancer cell line. Description: Proliferation of log-phase cells, MCF-7. The experiment is classed as cell-based. The conditions noted are these: 48 h incubation, 10% FBS-supplemented medium, read-out: IC50 values (drug concentration required to reduce cell growth by 50%). The method, then:
as §1, §2

Experiment [4] concerns SK-N-MC neuroblastoma cell line. Description: Proliferation of log-phase cells, SK-N-MC. The format is cell-based. Particulars: 48 h incubation, 10% FBS-supplemented medium, read-out: IC50 values (drug concentration required to reduce cell growth by 50%). The method, then: as §1, §2
The test system of experiment [5] is SK-N-SH neuroblastoma cell line. Description: Proliferation of log-phase cells, SK-N-SH. The experiment is classed as cell-based. The conditions noted are these: 48 h incubation, 10% FBS-supplemented medium, read-out: IC50 values (drug concentration required to reduce cell growth by 50%). The method, then: as §1, §2
The test system of a further experiment is U937 tumor cell line. Description: Growth inhibition (GI50), U937. The experiment is classed as cell-based, human.
Another experiment has as its system HT29 tumor cell line. Description: Growth inhibition (GI50), HT29. The experiment is classed as cell-based, human.
The next experiment relates to A549 tumor cell line. Description: Growth inhibition (GI50), A549. The format is cell-based, human.
The subject of a further experiment is MCF7 tumor cell line. Description: Growth inhibition (GI50), MCF7. The format is cell-based, human.
The subject of another experiment is MCF7/ADR tumor cell line. Description: Growth inhibition (GI50), MCF7/ADR. The experiment is classed as cell-based, human.
Experiment [6] relates to NIH-3T3 normal fibroblast cell line. Description: Growth inhibition (GI50), NIH-3T3. Particulars: NIH-3T3 normal cell line (murine). The format is cell-based. The text has this:
(§3) For growth inhibitory evaluation, five human tumor cell lines (U937; HT29; A549; MCF7; MCF7/ADR) and two normal fibroblast cell lines (NIH-3T3, murine; WI-38, human) were used. For comparison, the activity of free L-ET18OCH3 and D-ET18OCH3 was examined.

The test system of experiment [7] is WI-38 normal fibroblast cell line. Description: Growth inhibition (GI50), WI-38. The experiment is classed as cell-based. The conditions noted are these: WI38 normal cell line (human).
Description: as §3

Experiment [8] has as its system normal cell lines as compared to the tumor cell lines. Description: Growth inhibition, normal versus tumor cell lines. The experiment is classed as cell-based. The conditions noted are these: normal (NIH-3T3, WI-38) versus tumor cell lines.
Description: as §3

The subject of a further experiment is MAP kinase. Description: MAP kinase phosphorylation in stimulated MCF-7 cells (Western blot). The experiment is classed as cell-based. The conditions noted are these: 15 μM preincubation 3 h; insulin- and EGF-stimulated MCF-7 cells. The method, then: (§4) Quiescent MCF-7 cells were preincubated with (“+” in FIGS. 6-8) or without (“−” in FIGS. 6-8) 15 μM of the R or S enantiomer of ET-16-phosphono-TDB (TDB-PC in FIGS. 7-9) in DMEM supplemented with BSA (0.5 mg/mL) for 3 h. The cells were washed twice and stimulated with […] growth factor (EGF) or insulin for various periods. At the end of the incubation, the medium was aspirated, and the cells washed with ice-cold PBS and scraped into ice cold buffer comprising 20 mM Tris-HCl (pH 7.4) 2 mM EGTA, 100 mM β-glycerophosphate, 1 mM Na3VO4, aprotinin (10 μg/mL), leupeptin (10 μg/mL), 0.2 mM aininoethylbenzylsulfonyl fluoride, 0.2 mM benzarnidine, 1 mM dithiothreitol, 1% triton-X-100, and 0.5% NP-40). After ultrasonication, the mixture was centrifuged at 100,000×g for 30 min. The cell lysates were flash frozen and stored at −70° C. until required.
(§5) MAP kinase activity in cell lysates from EGF and insulin-stimulated MCF-7 cells were assessed by Western blot analysis with phospho-specific antibodies according to the instructions provided by the manufacturer (New England Biolabs). PKB/AKT activity in insulin-stimulated MCF-7 cell lysates was also assessed with phospho-specific antibodies by Western blot analysis. Bound antibody was visualized by chemiluminescence using reagents from Boehringer Mannheim and quantitated with a multiimager Fluor S system (BioRad).

Another experiment relates to PKB/AKT. Description: PKB/AKT phosphorylation in stimulated MCF-7 cells (Western blot). The format is cell-based. The conditions noted are these: 15 μM preincubation 3 h; insulin- and EGF-stimulated MCF-7 cells. The method, then:
as §4, §5

For orientation: GI50 means the concentration at which growth is held to half of that of the control. Turning to `CCCCCCCCCCCCCCCCOC[C@@H](C=CP(=O)([O-])OCC[N+](C)(C)C)OC` [(R)-ET-16-phosphono-TDB, 2′-(Trimethylammonio)ethyl 4-(hexadecyloxy)-3-(R)-methoxy-1-butenephosphonate], the IC50 was more than 5 µM in experiment [1]; more than 5 µM in experiment [2]; 4.1 µM in [3]; more than 5 µM in experiment [4]; 2.5 µM in experiment [5]. Besides, the GI50 in the experiment with U937 tumor cell line was 2.2 µM; in the experiment on HT29 tumor cell line it was 5.9 µM; in the experiment on A549 tumor cell line, 15.3 µM; in the experiment on MCF7 tumor cell line, 35.1 µM; with MCF7/ADR tumor cell line, more than 40 µM; in experiment [6], 77.3 µM. Also, growth in experiment [7] was halved (GI50) at 57.5 µM. Moreover, the “selectivity: GI50 values for the normal cell lines as compared to the tumor cell lines” value in [8] is recorded as “remarkable selectivity”.

Consider `CCCCCCCCCCCCCCCCOC[C@H](C=CP(=O)([O-])OCC[N+](C)(C)C)OC` [(S)-ET-16-phosphono-TDB, 2′-(Trimethylammonio)ethyl 4-(hexadecyloxy)-3-(S)-methoxy-1-butenephosphonate], for which the IC50 in [1] turned out to be 0.9 µM; in experiment [2], 4.2 µM; in experiment [3] it was 1.9 µM; in experiment [4], 2.2 µM; in experiment [5] it was 1.8 µM. Besides, in the experiment with MAP kinase, the “inhibition of phosphorylation of MAP kinase” value is on record as “to a greater extent than the less active R enantiomer”. In the experiment with PKB/AKT, the “inhibition of phosphorylation of PKB” value is recorded as “to a greater extent than the less active R enantiomer”. The GI50 in the experiment with U937 tumor cell line is 1.1 µM; in the experiment with HT29 tumor cell line, 2.8 µM; in the experiment on A549 tumor cell line, 9 µM; in the experiment with MCF7 tumor cell line it was 32.4 µM; in the experiment on MCF7/ADR tumor cell line, more than 40 µM; in experiment [6] it was 66.3 µM. For the same compound, in experiment [7], the 50% growth inhibitory concentration (GI50) is 14.4 µM. Besides, in experiment [8], the “selectivity: GI50 values for the normal cell lines as compared to the tumor cell lines” value was “remarkable selectivity”.
